In patent US9050268B2, “Functional amphipilic molecule or macromolecule formulations with multiple compartments” (UNIVERSITE d'AIX-MARSEILLE, priority 2009, dated 2015):

How the values were obtained:
[1] = tested on: SKV03 cells (cisplatin-resistant ovarian adenocarcinoma line); assay: Assay of intracellular cisplatin (ICP optical assay after cell lysis); assay type: cell-based; conditions: 10^6 cells SKOV3, 100 μM, 2 hours
Method: (§1) IGROV1 cells (cisplatin-sensitive ovarian adenocarcinoma line) at 80% confluence (dish 10 cm in diameter) are treated with […] of free cisplatin or cisplatin encapsulated in the nanoparticles of Example 10 for 2, 4 or 6 hours. On completion of this treatment two washings with PBS are carried out. The cells are treated with trypsin and resuspended in PBS. Two washings of the cell suspensions with PBS are carried out (centrifugation 1000 rpm/1 min). The cells are suspended in 1 mL of PBS and counted.
The same procedure is followed with SKV03 cells (cisplatin-resistant ovarian adenocarcinoma line).
(§2) 10^6 cells are lysed with 500 μL of the cell lysis solution (lysis buffer from SIGMA). The volume is topped up to 5 mL with milli-Q water with 1% HNO3 acid.

[2] = tested on: IGROV1 cells (cisplatin-sensitive ovarian adenocarcinoma line); assay: as above; assay type: cell-based, human; conditions: 10^6 IGROV1 cells, 100 μM, 2 hours
Method: as §1, §2

[3] = tested on: cisplatin-sensitive A2780 (Human ovarian carcinoma epithelial tumor); assay: Cytotoxic effects on tumor lines (MTS cell viability); assay type: cell-based; conditions: 24 hours treatment, MTS 48 hours after washing, read-out: concentration necessary to obtain 50% cell death (IC50)
Description: (§3) The study consists of determining the concentration inhibiting 50% of cell proliferation (IC50) on a panel of tumor lines, namely • cisplatin-sensitive A2780 (Human ovarian carcinoma epithelial tumor) and cisplatin-resistant A2780/CisPt (Human ovarian carcinoma epithelial tumor) • cisplatin-sensitive IGROV-1 (Human ovarian carcinoma) and cisplatin-resistant IGROV-1/CisPt (Human ovarian carcinoma) • cisplatin-sensitive L1210 (mouse lymphocytic leukemia) and cisplatin-resistant L1210/CisPt (mouse lymphocytic leukemia) […] • NIH: OVCAR3 (ovarian carcinoma), and • P388 (mouse lymphoma)
(§4) 2500 cells (ovarian adenocarcinoma lines, etc.) per well are incubated in 100 μL of the medium with serum in a 96-well plate. After 24 hours the medium is aspirated and the cells are treated with free cisplatin or cisplatin encapsulated in the nanoparticles of Example 10 in 100 μL of the medium without serum at different concentrations (500, 100, 10, 1, 0.1, 0.01, 0.001 μM). After treatment for 24 hours, the medium is removed and the cells are washed twice with 100 μL of PBS then incubated with 100 μL of the medium with serum.
(§5) The absorbance at 490 nm is measured after incubation for 2 to 4 hours at 37° C. The absorbance is proportional to the cell viability.

[4] = tested on: cisplatin-resistant A2780/CisPt (Human ovarian carcinoma epithelial tumor); assay: as above; assay type: cell-based; conditions: cisplatin-resistant line A2780; 24 hours treatment, MTS 48 hours after washing; read-out: concentration necessary to obtain 50% cell death (IC50)
Description: as §3, §4, §5

[5] = tested on: SKOV3 (cisplatin-resistant); assay: Cytotoxic effects on tumor lines IGROV-1 and SKOV3 (MTS cell viability); assay type: cell-based; conditions: 24 hours treatment, MTS 48 hours after washing, read-out: concentration necessary to obtain 50% cell death (IC50)
Method: as §4, with “(IGROV1, SKOV3, ovarian” for “(ovarian”, “lines)” for “lines, etc.)”
as §5

[6] = tested on: IGROV1 (cisplatin-sensitive); assay: as above; assay type: cell-based, human; conditions: 24 hours treatment, MTS 48 hours after washing, read-out: concentration necessary to obtain 50% cell death (IC50)
Method: as §4, with “(IGROV1, SKOV3, ovarian” for “(ovarian”, “lines)” for “lines, etc.)”
as §5

## N.N.[Cl][Pt][Cl] [free cisplatin, cisplatin]
[1]
  cisplatin internalized: 0.5 nmol
[2]
  cisplatin internalized: 0.5 nmol
[3]
  IC50: 4.68 µM
[4]
  IC50: 29.2 µM
[5]
  IC50: 4.3 µM
[6]
  IC50: 2.41 µM
